The text below walks through data of US20060165656A1, “Medicinal preparation having chemotherapeutic encapsulated therein” (priority 2002, published 2006).

Like-named read-outs stand apart in the source and are kept apart here.

The test system of experiment [1] is Mouse colon cancer-derived CT-26 cells transplanted in BALB/cAnNCrj male mice. Put plainly: In vivo experiment (2): tumor volume and weight, HVJ-E/BLM into the tumor with or without intraperitoneal CDDP. The conditions noted are these: Day 21, physiological saline into the tumor.
The subject of experiment [2] is mouse colon carcinoma cell CT26. The conditions noted are these: 30 minutes at 37° C., counted two days later, HCl.
Procedure: A microtube containing the sample was centrifuged at 15,000 rpm for 15 minutes at 4° C. to give the HVJ-E vector as a precipitate, and the supernatant was removed. […] Further, 2 μl of 3% Triton-X100 was added thereto to prepare a sample containing Triton-X100 at a final concentration of 0.1%, which was then left on ice for 15 minutes. Thereafter, 500 μl PBS solution was added thereto. The microtube was centrifuged at 15,000 rpm for 15 minutes at 4° C., and the supernatant was removed without removing the precipitate, and 500 μl PBS solution was added again to the precipitate. The microtube was centrifuged again at 15,000 rpm for 15 minutes at 4° C., and the supernatant was removed without removing the precipitate.
The resulting precipitate was suspended in 180 μl PBS, and the resulting sample solution was pipetted in a volume of 30 μl/microtube into 6 microtubes. Five microlitters of protamine sulfate solution prepared at 5 mg/ml and 500 μl DMEM solution (Dulbecco's modified Eagle medium) were added to each tube.
The above sample solution was added to mouse colon carcinoma cell CT26 prepared on a 6-well plate. The plate was kept for 30 minutes in an incubator at 37° C., and then the medium was exchanged with 500 μl medium (DMEM containing 10% FCS). The cells were incubated for 2 days in a CO2 incubator at 37° C. Two days later, the number of viable cells was counted to evaluate the anticancer effect.

For the molecule `[NH2][Pt]([NH2])([Cl])[Cl]` [CDDP, cisplatin], the tumor weight stood at 1619.79 mg in experiment [1] (CDDP 0.2 mg/body i.p.) and 1164.13 mg in experiment [1] (CDDP 0.4 mg/body i.p.). For the same molecule, the average tumor volume in experiment [1] (CDDP 0.2 mg/body once intraperitoneally, 10 mice) was determined as 1720.14 mm^3; in experiment [1] (CDDP 0.4 mg/body once intraperitoneally, 3 mice) it was 1367.62 mm^3.
Consider bleomycin HCl, for which the “number of viable cells (Mean)” value is 81800 in experiment [2] (1/50 bleomycin group: bleomycin 50 μg/DMEM 500 μl/well); 164,600 in experiment [2] (1/500 bleomycin group: bleomycin 5 μg/DMEM 500 μl/well); 164600 in experiment [2] (1/500 bleomycin group: bleomycin 5 μg/DMEM 500 μl/well, listed as Bleomycin); 196,800 in experiment [2] (1/5,000 bleomycin group: bleomycin 500 ng/DMEM 500 μl/well); 196800 in experiment [2] (1/5,000 bleomycin group: bleomycin 500 ng/DMEM 500 μl/well, listed as Bleomycin).
